In patent US20140259191A1, “FISH ANESTHETIC AND METHOD” (AQUA-MOR TECHNOLOGIES LTD., priority 2011, published 2014):

Legend:
common carp = assay: Five-hour sedation of common carp, linalool versus 2-phenoxyethanol; format: in vivo; settings: linalool 40 ppm; for Number of fish exhibiting loss of upright position: 26° C.
Method: 2-Phenoxyethanol (2-PE) is used to sedate fish in vaccinations procedures for relatively long periods of time (3 hours). 35 common carp were placed in each of two 60-liter tanks containing water at 26° C. Into one tank was added linalool (in a formulation as described in Example 28) to a concentration of 40 ppm; into the other tank was added 2-PE to a concentration of 200 ppm. Sedation of fish was determined by observation of loss of upright position, operculum movement and response to stimulus (handling). Total exposure time was five hours, at the end of which the fish were transferred 60-liter recovery tanks containing untreated water.

cyprinus carpio = assay: Three-hour sedation of carp with 30 ppm linalool; format: in vivo
Method: Three cyprinus carpio of 140 g average weight, each in a tank of 20 L water at 25° C., were exposed to linalool, added to each tank in a formulation containing 20 wt. % linalool, 5 wt. % Alkamuls 14/R (a non-ionic surfactant added as an emulsifier), 70 wt. % propylene glycol and 5 wt. % ethanol to a linalool concentration of 30 ppm in the water. Specimens were observed every 30 minutes after addition of linalool. […] After removal to a tank of untreated water, each of the fish returned to their initial state within five minutes.

C=CC(C)(O)CCC=C(C)C (stereo not drawn) [linalool]
Number of fish exhibiting loss of upright position (common carp; 35 common carp per tank, 2-PE 200 ppm, time 10:30 (start), aeration): 0 | Number of fish exhibiting loss of upright position (common carp; 35 common carp per tank, 2-PE 200 ppm, time 11:00 (start 10:30), no aeration): 2 | Number of fish exhibiting loss of upright position (common carp; 35 common carp per tank, 2-PE 200 ppm, time 11:40 (start 10:30), no aeration): 9 | Number of fish exhibiting loss of upright position (common carp; 35 common carp per tank, 2-PE 200 ppm, time 12:35 (start 10:30), no aeration): 16 | Number of fish exhibiting loss of upright position (common carp; 35 common carp per tank, 2-PE 200 ppm, time 13:35 (start 10:30), no aeration): 17 | Number of fish exhibiting loss of upright position (common carp; 35 common carp per tank, 2-PE 200 ppm, time 14:30 (start 10:30), aeration): 20 | Number of fish exhibiting loss of upright position (common carp; 35 common carp per tank, 2-PE 200 ppm, time 15:30 (start 10:30), aeration): 16 | survival at transfer to recovery tank (common carp; 35 common carp per tank, 2-PE 200 ppm, after five hours exposure): All alive | reflex response over the 5 hours of exposure (common carp; common carp, 2-PE 200 ppm): reduced from the beginning of the trial and remained at the same level of reflex throughout the 5 hours of exposure | sedative effect between 3 and 5 hours of exposure (common carp; common carp, 2-PE 200 ppm): maintained | recovery after placement in a recovery tank (common carp; common carp, 2-PE 200 ppm, after five hours exposure): recovered quickly in few minutes and did not show signs of stress | response to external stimulation during the first 3 hours (common carp; common carp, 2-PE 200 ppm, sedation levels enabled handling): did not respond to external stimulation | loss of reflex reactivity (common carp; common carp, in contrast to 2-PE): did not completely lose reflex reactivity | time in untreated water until return to initial state (cyprinus carpio; Example 28: carp 140 g, after three-hour exposure): five | handling state of the fish (cyprinus carpio; Example 28: three carp 140 g, 25° C., at 30 minutes after exposure and for the duration of the three-hour exposure): easy to handle
